The target in this experiment is T1, Na-K-ATPase (Bos taurus, UniProt Q08DA1).
T1 construct: 86Rb uptake
Kind of experiment: Microassay: inhibition of ^86 Rb uptake by MDBK cell cultures. The class given is cell-based, bovine. The text has this:
Such a cell line is available from the American Type Culture Collection, 12301 Park Lawn Drive, Rockville, Md. 20852. USA, where it is identified by the reference ATCC CCL34 (certified cell line). The preferred method of assaying bioactivity according to the present invention, described in Example II below, employs a microassay which is based upon the ability of the natriuretic compound of the present invention to inhibit ^86 Rb influx by MDBK cells grown in culture. Ouabain (10^-5 M) is used as the reference inhibitor.
The natriuretic activity of the Natriuretic Hormone can be ascertained by its effect on the uptake of ^86 Rb by MDBK ([…] Bovine Kidney Cell) cultures. […]
Approximately 200,000 MDBK cells were plated in trays containing 12 […] wells, and grown for four days at 37° C. in Dulbecco's modified Eagle media (DMEM) (Gibco #430-2100), to which was added (per liter) 3.7 g sodium bicarbonate, 5 mg phenol red, 10% fetal calf serum, 10^6 units penicillin-G sulfate, 0.1 g equivalent base streptomycin sulfate, 7.34 mg polymyxin-B sulfate, and 3.4 mg fungizone and maintained in an atmosphere of 5% CO2, 95% air. […] 0.5 ml of 5% TCA was added to each well and incubated for 10 minutes at 37° C. to release radioactivity inside the cells. […] The ^86 Rb activity was counted in a scintillation counter (Beckman LS 3-801). […] Data were recorded as cpm/mg cell protein. […]

The structures appear in SMILES notation. “And” between values parts separate entries of the source, which are not always exact repeats. Identical values can stand only once.

Turning to `C[C@@H]1O[C@@H](O[C@H]2C[C@@H](O)[C@]3(CO)[C@H]4[C@H](O)C[C@]5(C)[C@@H](C6=CC(=O)OC6)CC[C@]5(O)[C@@H]4CC[C@]3(O)C2)[C@H](O)[C@H](O)[C@H]1O` [Ouabain], the “^86 Rb uptake, cpm/mg of protein” value (10^-5 M ouabain, positive control, run in duplicate) is 17,649 cpm/mg of protein and 15,611 cpm/mg of protein. Moreover, the inhibition at 10 µM (MDBK, read-out: % inhibition of ^86 Rb uptake) worked out at 77.7%.

Source of the values: US5422393A, “Natriuretic hormone” (Naturon Pharmaceutical Corporation, priority 1993, dated 1995).
